The source of these data is paper PMC10730845, “Endoxifen downregulates AKT phosphorylation through protein kinase C beta 1 inhibition in ERα+ breast cancer” (NPJ Breast Cancer, 2023).

Values joined by “and” are separate entries in the source; they are usually repeats but may differ in a detail not shown here. Equal values may be shown once. A value given as a limit tells only on which side of the number the result lay.

One experiment addresses PKC eta (PKCh) (Homo sapiens, UniProt P24723). Put plainly: In vitro kinase assay, PKC eta. The format is biochemical. Particulars: 10 μM ATP. The source says:
(§1) Supplementary Table 4. In vitro kinase assay showing the IC 50 concentration of ENDX and
(§2) of the 12 PKC family members.
(§3) (1 picture or pasted object on this page, not shown here)

Another experiment concerns the target PKC beta 2 (PKCb2) (Homo sapiens, UniProt P05771). The experiment can be described thus: In vitro kinase assay, PKC beta 2. As to conditions: 10 μM ATP. The format is biochemical.
Text: as §1, §2, §3

The next experiment deals with PKCβ1 (Homo sapiens, UniProt P05771). The experiment can be described thus: In vitro kinase assay, PKCβ1 kinase activity. In kind it is biochemical. Particulars: 10 μM ATP, three-fold serial dilution from 50 μM, Fig. 6d.
Details of experiment [1]: method as in PMID 24853369, PMID 28977607. Particulars: low (10 mg/kg) and high (50 mg/kg) doses; cited from earlier work.
The next experiment concerns T47D-LTED cells. The experiment can be described thus: Crystal violet cell viability assay, T47D-LTED. Particulars: CSS media, six days; 5 µM. The format is cell-based, human. Here is the method: Cells were plated at a density of 2000 cells per well. Cell viability of (i) vehicle or drug treated MCF7AC1 and T47D-LTED cells in CSS medium, (ii) siNT or siPKCβ-transfected MCF7AC1 cells in CSS medium and (iii) T47D cells in FBS versus CSS medium were analyzed by crystal violet staining assay after 6 days of treatment or siRNA transfection as previously described. Cell viability was calculated as the average absorbance of the drug treated cells divided by the average absorbance of the vehicle treated cells × 100.
Supplementary Figure 6. […] Cell viability is assessed by the crystal violet assay. b, MCF7AC1 cells were co-treated with vehicle control or 0.01, 0.1 and 5 µM MK-2206 and IncuCyte Annexin V green and NucLight rapid red reagents in CSS medi um for 48 hours. […]
Cells were plated at a density of 2000 cells per well. c, MCF7AC1 cells were treated with vehicle control or 0.01, 0.1 and 5 µM MK-2206 in CSS medium for 24 hours. […] Cell viability is assessed by the crystal violet assay. f, Parental T47D and T47D-LTED cells were processed for protein lysates. […] Cell viability is assessed by the crystal violet assay. h, T47D-LTED cells were co-treated with vehicle control or 0.01, 0.1 and 5 µM MK -2206 and IncuCyte Annexin V green and NucLight rapid red reagents in CSS medium for 48 hours. […] Cell viability is assessed by the crystal violet assay. […]

The subject of experiment [2] is PKCβ1 and AKT^Ser473 phosphorylation in HEK293F cells. Put plainly: Immunoblot of PKCβ1 and pAKT^Ser473, HEK293F. The format is cell-based, human. As to conditions: 5 µM, 2 h pretreatment, 100 nM insulin 1 h. The source says:
To determine whether the observed effects of ENDX on PKCβ1 degradation and AKT^Ser473 phosphorylation inhibition are dependent on the presence of ERα, we additionally evaluated ENDX effects on PKCβ1 degradation and AKT^Ser473 phosphorylation in the ER negative (ER-) MDAMB231 breast cancer cells and nonbreast HEK293F cells, a human embryonic kidney cell line, both of which express higher amounts of PKCβ1 compared to ERα+ MCF7AC1 cells (Supplementary Fig. 5a). […] To determine whether the addition of ERα to the MDAMB231 cell line could facilitate ENDX effects on PKCβ1, we performed doxycycline (dox)-induced ERα protein expression in MDAMB231 cells and evaluated ENDX effects on PKCβ1 using the above-mentioned experimental conditions. […] Additionally, we pretreated MDAMB231 and HEK293F cells with or without 5 µM ENDX for 1 h followed by 0 or 200 nM PMA treatment for 20 min and evaluated effects on PKCβ1.
Supplementary Figure 5. Effects of ENDX on PKCβ1, phospho -PKCB1Ser661 and phospho-AKTSer473 expression levels in ERα- breast cancer cells. a, Basal expression of PKCβ1 and ERα in the indicated cell lines. […]

Another experiment concerns the target PKC zeta (PKCz) (Homo sapiens, UniProt Q05513). The experiment can be described thus: In vitro kinase assay, PKC zeta. The format is biochemical. Particulars: 10 μM ATP.
Text: as §1, §2, §3

The next experiment concerns the target PKC alpha (PKCa) (Homo sapiens, UniProt P17252). The experiment can be described thus: In vitro kinase assay, PKC alpha. The format is biochemical. As to conditions: 10 μM ATP.
Text: as §1, §2, §3

Another experiment has as its system MDAMB436 cells. Put plainly: Crystal violet growth assay, MDAMB436. In kind it is cell-based, human. Particulars: day seven. The source says: Supplementary Figure 8. […]
ANOVA. b, Effects of ENDX on cell proliferation at the indicated concentrations on day seven of
treatment. […]

PKCβ1, sequence (P05771 whole entry): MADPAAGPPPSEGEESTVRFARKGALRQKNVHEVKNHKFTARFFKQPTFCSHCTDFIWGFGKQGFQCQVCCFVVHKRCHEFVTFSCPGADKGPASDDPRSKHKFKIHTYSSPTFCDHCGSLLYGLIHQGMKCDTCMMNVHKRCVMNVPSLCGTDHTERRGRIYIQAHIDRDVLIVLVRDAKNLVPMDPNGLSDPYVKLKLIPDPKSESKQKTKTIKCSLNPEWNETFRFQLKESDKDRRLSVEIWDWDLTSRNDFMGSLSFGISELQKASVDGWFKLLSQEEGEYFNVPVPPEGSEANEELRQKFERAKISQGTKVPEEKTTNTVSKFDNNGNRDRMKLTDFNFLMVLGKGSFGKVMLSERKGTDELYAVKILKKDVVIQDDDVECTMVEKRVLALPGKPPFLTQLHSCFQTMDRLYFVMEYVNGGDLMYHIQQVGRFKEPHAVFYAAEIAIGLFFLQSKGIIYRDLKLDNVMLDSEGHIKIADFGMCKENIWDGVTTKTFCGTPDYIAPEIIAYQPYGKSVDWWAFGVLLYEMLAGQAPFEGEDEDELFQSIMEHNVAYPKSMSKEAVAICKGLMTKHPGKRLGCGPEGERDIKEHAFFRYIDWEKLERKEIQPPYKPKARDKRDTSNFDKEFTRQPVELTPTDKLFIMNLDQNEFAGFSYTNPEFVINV
PKC eta (PKCh), sequence (P24723 whole entry): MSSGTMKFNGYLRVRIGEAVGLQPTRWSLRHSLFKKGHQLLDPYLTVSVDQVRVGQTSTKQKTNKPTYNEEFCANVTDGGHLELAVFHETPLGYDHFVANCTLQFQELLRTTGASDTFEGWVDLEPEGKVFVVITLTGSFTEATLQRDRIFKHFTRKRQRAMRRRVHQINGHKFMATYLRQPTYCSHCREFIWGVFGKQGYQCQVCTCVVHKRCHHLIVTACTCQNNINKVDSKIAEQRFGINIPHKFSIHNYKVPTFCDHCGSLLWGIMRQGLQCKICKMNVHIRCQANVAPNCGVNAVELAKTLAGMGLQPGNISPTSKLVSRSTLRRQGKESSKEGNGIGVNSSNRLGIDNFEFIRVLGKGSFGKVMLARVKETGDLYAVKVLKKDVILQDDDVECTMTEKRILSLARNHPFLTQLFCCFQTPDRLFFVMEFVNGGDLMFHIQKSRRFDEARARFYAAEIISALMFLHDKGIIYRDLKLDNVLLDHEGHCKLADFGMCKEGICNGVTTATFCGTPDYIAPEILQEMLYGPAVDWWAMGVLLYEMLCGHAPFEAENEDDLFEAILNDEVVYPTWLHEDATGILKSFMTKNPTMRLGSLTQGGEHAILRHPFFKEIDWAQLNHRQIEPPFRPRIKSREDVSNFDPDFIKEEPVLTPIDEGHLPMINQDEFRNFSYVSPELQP
PKC beta 2 (PKCb2), sequence (P05771 1-673 isoform P05771-2): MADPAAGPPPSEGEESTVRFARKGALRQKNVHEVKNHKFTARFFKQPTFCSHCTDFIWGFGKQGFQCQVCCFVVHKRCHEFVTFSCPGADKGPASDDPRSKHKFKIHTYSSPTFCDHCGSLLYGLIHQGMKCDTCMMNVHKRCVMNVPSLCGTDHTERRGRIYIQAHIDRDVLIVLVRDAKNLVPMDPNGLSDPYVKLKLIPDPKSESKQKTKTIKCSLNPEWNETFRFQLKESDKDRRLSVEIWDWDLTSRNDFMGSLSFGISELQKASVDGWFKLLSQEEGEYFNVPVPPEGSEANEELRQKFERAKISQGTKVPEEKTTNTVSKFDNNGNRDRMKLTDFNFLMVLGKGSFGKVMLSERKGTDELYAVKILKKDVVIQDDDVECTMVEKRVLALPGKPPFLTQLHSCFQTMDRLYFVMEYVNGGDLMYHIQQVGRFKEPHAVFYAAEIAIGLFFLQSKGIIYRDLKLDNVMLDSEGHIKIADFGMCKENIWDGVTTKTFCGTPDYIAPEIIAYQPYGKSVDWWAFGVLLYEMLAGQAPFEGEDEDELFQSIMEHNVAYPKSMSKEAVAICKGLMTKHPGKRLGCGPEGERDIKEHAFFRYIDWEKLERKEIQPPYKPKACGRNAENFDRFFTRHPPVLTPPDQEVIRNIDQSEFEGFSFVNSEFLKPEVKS
PKC zeta (PKCz), sequence (Q05513 whole entry): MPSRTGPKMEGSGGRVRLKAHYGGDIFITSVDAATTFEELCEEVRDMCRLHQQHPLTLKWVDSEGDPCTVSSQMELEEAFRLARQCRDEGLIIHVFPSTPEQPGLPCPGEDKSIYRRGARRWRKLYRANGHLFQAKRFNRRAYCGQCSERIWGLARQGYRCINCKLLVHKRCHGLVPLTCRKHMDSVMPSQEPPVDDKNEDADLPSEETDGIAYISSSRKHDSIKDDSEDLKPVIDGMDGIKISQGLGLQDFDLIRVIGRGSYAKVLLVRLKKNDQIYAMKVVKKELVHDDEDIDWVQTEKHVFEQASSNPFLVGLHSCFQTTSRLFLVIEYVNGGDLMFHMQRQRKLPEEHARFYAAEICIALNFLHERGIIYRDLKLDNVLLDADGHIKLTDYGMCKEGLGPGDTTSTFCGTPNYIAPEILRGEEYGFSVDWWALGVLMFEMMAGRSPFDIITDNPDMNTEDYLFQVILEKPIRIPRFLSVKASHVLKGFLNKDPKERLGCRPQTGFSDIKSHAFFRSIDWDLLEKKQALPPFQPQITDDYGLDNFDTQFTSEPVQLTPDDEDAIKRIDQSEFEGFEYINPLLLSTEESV

Regarding `CC/C(=C(\c1ccc(O)cc1)c1ccc(OCCNC)cc1)c1ccccc1` [ENDX, Z-endoxifen], the IC50 against PKC eta (PKCh) was more than 50 µM; on PKC beta 2 (PKCb2) it was 43.3 µM; on PKCβ1, 0.357 µM and 0.36 µM; at PKC zeta (PKCz), 48.1 µM; on PKC alpha (PKCa), more than 50 µM. Further, the “Effects on the bone” value in [1] was “increasing cancellous and cortical bone mass, reducing bone turnover, and protecting against bone loss”. Further, the Effect on growth entry with T47D-LTED cells is “inhibited growth”. For the same compound, in experiment [2], the “Effect on PKCβ1 protein levels” value is recorded as “did not impact PKCβ1 protein levels”. Further, in experiment [2], the “Effect on insulin induced AKT^Ser473 phosphorylation” value was “did not inhibit this phosphorylation”. Besides, the “Concentrations at which growth was inhibited” value with MDAMB436 cells was more than 7.5 µM.
